Results on 14 compounds are retold here after patent US6664297B1, “Methods for inhibition and dissolution of amyloidoses by administration of compositions comprising 2,4-dinitrophenol” (priority 2000, dated 2003).

Where a name gives a salt, the structure may show the parent alone.

In series [1] the test system is hippocampal neurons. The series can be described thus: Aβ neurotoxicity in hippocampal neuron cultures, morphology by anti-Tau immunostaining. Type of series: cell-based, rat. The following applies: Aβ1-42 44 μM, 72 hours. On the procedure: In order to evaluate the efficacy of the phenol derivatives, control assays were also performed in the absence of the aromatic or heteroaromatic compounds described herein.
Med., 3, 1376-82, 1997) with minor modifications. […] Daily observations were carried out during this period.
Aβ1-42 (44 μM) was added to the culture medium containing neurons and incubation was continued for 72 hours. […] Furthermore, the remaining cell bodies of Aβ-treated neurons were attached to the plate, but their neurites were retracted and thin, and sometimes detached from the plate.

For series [2], the target named is T1, Aβ1-42 (Homo sapiens, UniProt P05067).
T1 construct: purchased Bachem Inc; host or cells: synthetic peptide
T1 sequence (P05067 672-713): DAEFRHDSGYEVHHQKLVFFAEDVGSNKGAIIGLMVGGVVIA
The series can be described thus: Disaggregation of aggregated Aβ1-42 followed by 90° light scattering. Type of series: biochemical. As to conditions: for IC50: aggregated Aβ1-42, light scattering measured 1.5 hour after addition, 23° C., read-out: IC50 for disaggregation of Aβ; for inhibition at 200 µM: read-out: % decrease in light scattering. On the procedure: (§1) Aβ peptides of different chain-lengths (Bachem Inc., Torrance, Calif., USA) were freshly dissolved from lyophilized powder in 50% (v/v) trifluoroethanol (TFE) in PBS. Aggregation was triggered by dilution of aliquots from the stock solution into PBS (resulting in ≦0.5% (v/v) residual TFE), and was followed as a function of time by light scattering measurements. Light scattering was measured in sealed cuvettes at 500 nm on ISS Inc. (Champaign, Ill., USA) PC1 or Hitachi F-4500 spectrofluorometers. […] Low temperature experiments were performed using a thermostated cell holder and flushing the cell compartment with N2 to avoid condensation. All results shown represent equilibrium light scattering values obtained for each sample.
Concentrated peptide stock solutions were prepared in 50% (v/v) trifluoroethanol. Aggregation was triggered by dilution in phosphate-buffered saline (PBS) and was followed by means of light-scattering measurements (FIGS. 1A, 1B, 1C), thioflavin T fluorescence (not shown) and electron microscopy (FIG. 2). Equilibrium light scattering values were used as an index of the extent of aggregation under different experimental conditions.
One class of compounds we tested were the nitrophenols. The disaggregation of Aβ1-42 by nitrophenols was determined. 3-nitrophenol (NP; O) or 2,4-dinitrophenol (DNP; □) were added to aggregated samples prepared as described above. Light scattering intensities were measured 1.5 hour after addition of the drugs. Symbols represent averages±S.D. from 3 experiments.
Further results for a series of aromatic compounds are shown in Table 1, at aromatic compound concentrations of 200 micromolar.

A further series addresses T2, amyloid deposits (Homo sapiens, UniProt P05067).
T2 construct: purchased Bachem Inc; host or cells: synthetic peptide
The series can be described thus: Rat model of cerebral Aβ deposition (intrahippocampal co-injection). It is filed as in vivo. The following applies: 3 nmol Aβ1-42 co-injected with DNP 0.76 mM into hippocampus; 8 days; n=4, p=0.05. On the procedure: To evaluate the effects of nitrophenols as inhibitors of amyloid deposition in vivo, we used a rat model of cerebral Aβ deposition. Aβ was injected alone or in the presence of DNP into the left or right hippocampi of rats, respectively, and the areas occupied by amyloid deposits in either side were measured on consecutive sections stained with thioflavin S. The experimental protocol used was designed to minimize the influence of individual variability in animal response by injecting Aβ into one hemisphere and Aβ plus DNP into the other hemisphere for each individual rat.
Male adult Wistar rats (280-320 g) were anesthetized with chloropent (3.3 ml/kg) and placed into a stereotaxic frame. The left hippocampus (standard coordinates: A 5.0; L 2.0; H 6.8) was injected with 3 nmol of Aβ1-42 (from a previously diluted stock in 55 μl of PBS containing 9% DMSO). A volume of 1.5 μl was administered at a constant flow rate during a time period of 15 minutes. […] Images were analyzed with ScionImage to measure the areas occupied by amyloid aggregates.
FIG. 5A is a schematic diagram of the injection protocol and representative hippocampal sections visualized by Thioflavine-S staining or autofluorescence, as indicated. FIGS. 5B-5E show quantitative analysis of the area of amyloid deposits in consecutive hippocampal sections as described above. […]

Series [3] has as its system hippocampal neurons. Put plainly: Cell viability of hippocampal neuron cultures by trypan blue exclusion. As to conditions: no Aβ.
Method: Hippocampi from 18-day-old rat embryos were dissected and cultured as previously described by Martins et al., Nat. Med., 3, 1376-82, 1997) with minor modifications. Cells were plated on glass coverslips previously coated with 1.5 μg/ml polyornithine (Sigma) in Basal Eagle's Medium (Gibco) enriched with 10% fetal calf serum (Hyclone) for the first 24 hours of culture. After that, proliferation of nonneuronal cells was inhibited with 10 μM arabinosyl cytoside and the serum concentration was lowered to 2%. Aβ1-42 (44 μM), in the absence or in the presence of nitrophenols, was added after 48 hours of culture and kept for three days. Control cultures consisting of neurons cultured in growth medium alone or in the presence of residual TFE (0.5% v/v) were also prepared. Daily observations were carried out during this period.
Cell viability in cultures incubated with or without Aβ (as described above) was assessed by trypan blue exclusion. Immediately before counting, the medium was removed, cultures were washed once with PBS and incubated for 5 min with 0.4% trypan blue. Randomly chosen fields were counted in a Zeiss Televal microscope. Percentages of live neurons are expressed relative to the total number of neurons observed in each field. Five independent fields were counted for each experimental condition (which were carried out in triplicate).
The target of series [4] is T1, Aβ1-42. Put plainly: Transmission electron microscopy of Aβ1-42 fibril formation. Type of series: biochemical. On the procedure:
Aggregated samples were also examined by transmission electron microscopy. In this case, Aβ (22 μM) was incubated in PBS in the absence or in the presence of nitrophenols, as indicated. After 48 hours, samples were stained with 1% uranyl acetate.
Confirmation that the light scattering intensity measurements were in fact related to the formation of amyloid fibrilar aggregates was made by transmission electron microscopy analysis using uranyl acetate staining.
An Aβ1-42 sample incubated for 2 days in the presence of 20 μM DNP is shown in FIG. 2C (Magnification: 52,500×).

For series [5], the target named is T1, Aβ1-42. Put plainly: Disaggregation of fibrillar Aβ1-42 by GdnHCl, light scattering. It is filed as biochemical. The following applies: Aβ1-42 10 μM, 1 hour incubation. On the procedure:
as §1
(§2) Stabilities of the fibrillar amyloid aggregates of peptides Aβ1-28, Aβ1-42 and Aβ1-43 in the presence of guanidine hydrochloride were compared. Measurements of the reduction in light scattering intensity as a function of the concentration of guanidine hydrochloride were used as an index of amyloid aggregate dissolution. Samples were incubated for 1 hour in the presence of the indicated concentrations of GdnHCl prior to measurements. Different symbols correspond to Aβ1-28 (□), Aβ1-42 (O) and Aβ1-43 (Δ), and represent averages±S.D. from 3-5 determinations.

The target in another series is T3, Aβ1-28 (Homo sapiens, UniProt P05067).
T3 construct: purchased Bachem Inc; host or cells: synthetic peptide
T3 sequence (P05067 672-699): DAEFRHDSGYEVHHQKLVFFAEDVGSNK
Put plainly: Disaggregation of fibrillar Aβ1-28 by GdnHCl, light scattering. It is filed as biochemical. The following applies: Aβ1-28 10 μM, 1 hour incubation. On the procedure:
as §1, §2

[6] abbreviates: aromatic compound concentration 200 micromolar.

T2 sequence (P05067 672-713): as the sequence (P05067 672-713) above

For the compound `O=[N+]([O-])c1ccc(O)c([N+](=O)[O-])c1` [2,4-dinitrophenol], the “protection against Aβ neurotoxicity (neuron morphology)” value in the series on hippocampal neurons [1] (20 μM DNP) is on record as “marked protection against neurotoxicity”. For the same compound, the “light scattering from Aβ suspensions (disaggregation of fibrillar amyloid)” value at Aβ1-42 [2] (DNP 20 μM) was “completely abolished light scattering”. Further, the IC50 at Aβ1-42 [2] was about 7 µM. For the same compound, the inhibition at 200 µM on Aβ1-42 [2] (setting [6]) worked out at 100%. Moreover, the “reduction in the volume of amyloid deposits relative to Aβ injected alone” value at amyloid deposits was 86±17%. Besides, in the series with hippocampal neurons [3] (20 μM DNP), the “effect of compound alone on survival of neurons in culture” value is “no effects”. Besides, the “fibrils seen by electron microscopy” value at Aβ1-42 [4] (Aβ1-42 22 μM incubated 2 days in PBS with 20 μM DNP) is on record as “completely devoid of fibrils”.

As for `Nc1cc(Cl)ccc1O` [2-amino-4-chlorophenol], the inhibition at 200 µM at Aβ1-42 [2] (setting [6]) was 12%.

For the compound `Nc1cc([N+](=O)[O-])ccc1O` [2-amino-4-nitrophenol], the inhibition at 200 µM on Aβ1-42 [2] (setting [6]) came to 92%.

Take `Nc1ccc([N+](=O)[O-])cc1O` [2-amino-5-nitrophenol]: the inhibition at 200 µM on Aβ1-42 [2] (setting [6]) came out at 44%.

With `Cc1ccc(O)cc1C` [3,4-dimethyl-phenol], the inhibition at 200 µM on Aβ1-42 [2] (setting [6]) amounted to 40%.

Take `Nc1cccc(O)c1` [3-amino-phenol]: the inhibition at 200 µM on Aβ1-42 [2] (setting [6]) was 18%.

Turning to `O=[N+]([O-])c1cccc(O)c1` [3-nitrophenol], the “protection against Aβ neurotoxicity (neuron morphology)” value in the series on hippocampal neurons [1] (100 μM NP) is reported as “marked protection against neurotoxicity”. Further, at Aβ1-42 [2], the IC50 was about 80 µM. In addition, at Aβ1-42 [2] (setting [6]), the inhibition at 200 µM came out at 60%. Besides, in the series on hippocampal neurons [3] (100 μM NP), the “effect of compound alone on survival of neurons in culture” value is given as “no effects”. On Aβ1-42 [4] (Aβ1-42 22 μM incubated 2 days in PBS with 100 μM NP), the “fibrils seen by electron microscopy” value is listed as “completely devoid of fibrils”.

As for `COc1ccc(N)cc1` [4-amino-anisole], the inhibition at 200 µM at Aβ1-42 [2] (setting [6]) stood at 48%.

As to `O=[N+]([O-])c1ccc(Br)cc1` [4-bromo-nitrobenzene], at Aβ1-42 [2] (setting [6]), the “% decrease in light scattering” value is given as 37%.

With `Oc1ccc(Br)cc1` [4-bromo-phenol], the inhibition at 200 µM at Aβ1-42 [2] (setting [6]) is 25%.

In the case of `Oc1ccc(Cl)cc1` [4-chloro-phenol], the inhibition at 200 µM at Aβ1-42 [2] (setting [6]) came to 20%.

`CCc1ccc(O)cc1` [4-ethyl-phenol]: at Aβ1-42 [2] (setting [6]), the inhibition at 200 µM was 0%.

As to `COc1ccc([N+](=O)[O-])cc1` [4-nitro-anisole], the inhibition at 200 µM on Aβ1-42 [2] (setting [6]) was 49%.

Regarding `N=C(N)N` [GdnHCl, guanidine hydrochloride], the “GdnHCl concentration for full disaggregation” value on Aβ1-42 [5] lay within 5 to 6 M. Further, the “GdnHCl concentration for complete disaggregation” value on Aβ1-28 worked out at 3 M.
